Reference: patent US10106558B2, “Azolobenzazine compounds, compositions comprising these compounds and their use for controlling invertebrate pests” (BASF SE, priority 2015, dated 2018)

How the values were obtained:
Assay type in all cases: in vivo
[1] = test system: yellow fever mosquito (Aedes aegypti); experiment: whole plant or invertebrate; conditions: 48 h, larval mortality visually assessed after 2 days, read-out: mortality in comparison with untreated controls
Method in brief: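 Freshly hatched larvae (5-15 per well) held in 200 μl tap water; compounds formulated in 25% DMSO/water and 2.5 μl sprayed at several concentrations, two replicates. Plates kept 2 days at 28 °C, 80% RH, then larval mortality scored visually.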

[2] = test system: Orchid Thrips (Dichromothrips corbetti); experiment: Action on orchid thrips, floral-immersion technique; conditions: adult thrips, 72 hours after treatment, read-out: mortality in comparison with untreated controls
Method in brief: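 Lab-colony adult thrips, about 20 per arena, were exposed to whole orchid flower petals dipped in compound diluted in 1:1 acetone:water with 0.01% v/v Kinetic HV and then dried. Arenas were held under continuous light at about 28 °C. Live thrips were counted after 3 days and percent mortality recorded at 72 h post-treatment.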

[3] = test system: boll weevil (Anthonomus grandis); experiment: Action on boll weevil, eggs on insect diet in 96-well microtiter plates; conditions: 120 h, 800 ppm, egg and larval mortality visually assessed after 5 days, read-out: mortality in comparison with untreated controls
Method in brief: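 Diet in 96-well plates was infested with 5-10 A. grandis eggs and sprayed with compounds formulated in 75% water/25% DMSO, at several concentrations, in two replicates. Plates were held 5 days at about 25±1 °C and 75±5% RH. Egg and larval mortality was then scored visually.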

[4] = test system: Silverleaf Whitefly (Bemisia argentifolii) (Adults); experiment: Action on silverleaf whitefly adults, sprayed cotton plants; conditions: 72 h, 3 days after treatment, read-out: mortality in comparison with untreated controls
Method in brief: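 Compounds diluted from cyclohexanone stocks into 50% acetone/water with 0.01% nonionic surfactant and electrostatically sprayed onto cotyledon-stage cotton. Dried plants were infested with 10–12 adults (3–5 days old), held ~25 °C, 20–40% RH for 3 days; mortality scored at day 3 vs untreated plants.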

[5] = test system: Mediterranean fruitfly (Ceratitis capitata); experiment: Action on Mediterranean fruitfly, eggs on insect diet in microtiter plates; conditions: 120 h, egg and larval mortality visually assessed after 5 days, read-out: mortality in comparison with untreated controls
Method in brief: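 Microtiter plates held insect diet plus 50-80 C. capitata eggs; compounds in 75% water/25% DMSO were sprayed onto the diet at several concentrations, two replicates. Plates were kept at about […] and […] relative humidity for 5 days, then egg and larval mortality was scored visually.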

[6] = test system: Diamond Back Moth (Plutella xylostella); experiment: Action on diamond back moth, dipped cabbage leaves; conditions: 3rd instar larvae, 72 hours after treatment, read-out: mortality in comparison with untreated controls
Method in brief: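 Cabbage leaves dipped in compound in 1:1 water:acetone with 0.01% (vol/vol) surfactant, air-dried, placed on moist filter paper and infested with ten 3rd-instar larvae. Mortality scored 72 hours after treatment; feeding damage rated on a 0-100% scale.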

[7] = test system: Southern Armyworm (Spodoptera eridania), 2nd instar larvae; experiment: Action on southern armyworm 2nd instar larvae, sprayed lima bean plants; conditions: 96 h, 4 days after treatment, read-out: mortality in comparison with untreated controls
Method in brief: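 Lima bean plants (Sieva, 1st true leaf) sprayed electrostatically with compound in 50% acetone/water plus 0.01% nonionic surfactant, dried, then infested with 10–11 larvae in bags. Held at about 25 °C, 20–40% RH; mortality and reduced feeding scored 4 days after treatment versus untreated plants.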

Cc1ccc(C(C)C)c(N2C(=O)CS/C2=N\N=C\c2ccc3c(ccc4c3ncn4-c3ccc(OC(F)(F)F)cc3)n2)c1 [Compound C-6, (2Z)-3-(2-isopropyl-5-methyl-phenyl)-2-[(E)-[3-[4-(trifluoromethoxy)phenyl]imidazo[4,5-f]quinolin-7-yl]methylenehydrazono]thiazolidin-4-one]
≥ 75%: mortality at 800 ppm [1] | mortality at 500 ppm [2] | mortality at 800 ppm [3] | mortality at 500 ppm [4] | mortality at 800 ppm [5] | mortality at 500 ppm [6] | mortality at 500 ppm [7]
